The values below come from patent publication US8742106B2 (Novartis AG, priority 2009, dated 2014).

Structures are written as SMILES.

Experiment [1] concerns the target T1, human orexin 2 receptors (Homo sapiens (Human), UniProt O43614). The experiment is described as follows: Radioligand Binding Assay II ([3H]-SB649868 competition, cell membranes). Conditions: read-out: binding II hOx2R Kd. The method, then: (§1) Radioligand Binding Assay II
(§2) For crude cell membrane preparations, cells (CHO, Chinese hamster ovary or HEK, human embryonic kidney) expressing human orexin 1 or human orexin 2 receptors, were washed with HEPES (10 mM, pH 7.5), scraped off the culture plates with the same buffer, and centrifuged at 4° C. for 5 min at 2500×g. The cell pellet was either stored at −80° C. or used directly. Before the experiments, cell membranes were re-suspended in binding assay buffer (10 mM HEPES, 0.5% (w/v) bovine serum albumin, pH 7.5) by homogenisation with a Polytron homogeniser at 50 Hz for 20 s. Cell membranes were also used as made available by commercial providers.
(§3) Bound radioactivity was measured, and data were analysed with the program XLFIT or Graphpad Prism. Protein concentration was determined according to the Bradford/BioRad Protein Assay Kit.
(§4) In competition experiments, cell homogenates (150 μl) were incubated in assay buffer (10 mM HEPES, pH 7.5, 0.5% (w/v) bovine serum albumin, 5 mM MgCl2, 1 mM CaCl2, and tween 0.05%) for 1 h at room temperature with about 1 nM of the radioligand [^3H]-SB649868, 66 Ci/mmole, 50 μl), and with various concentrations of compounds of the invention (50 μl) in triplicates; non-specific binding was determined in the presence of almorexant (10 μM). Reactions were terminated by vacuum filtration, 3 washes of ice cold wash buffer (Tris-HCl pH 7.4/10 mM, with NaCl 154 mM).

For experiment [2], the target named is T1, human orexin 2 receptors. In words: Calcium Accumulation in Cells (FLIPR), antagonism of orexin A. The format is cell-based. As to conditions: antagonism of orexin A, Cheng-Prusoff corrected; read-out: FLIPR hOx2R Ki. The essentials:
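Cells expressing human orexin 2 receptor, loaded with Fluo4-AM (2 μM) plus probenecid (0.1 mM) for 1 h, then washed. Antagonism read as inhibition of the orexin A calcium fluorescence signal (FLIPR).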

Experiment [3] has as its target T2, human orexin 1 receptors (Homo sapiens (Human), UniProt O43613). The experiment is described as follows: Radioligand Binding Assay II ([3H]-SB649868 competition, cell membranes). Conditions: read-out: binding II hOx1R Kd. The method, then:
as §1, §2, §3
as §4, with “mM). Competition data is expressed in Table 2 as Kd [μM].” for “mM).”

In experiment [4] the target is T2, human orexin 1 receptors. The experiment is described as follows: Calcium Accumulation in Cells (FLIPR), antagonism of orexin A. As to conditions: antagonism of orexin A, Cheng-Prusoff corrected; read-out: FLIPR hOx1R Ki. The format is cell-based.

T2 sequence (O43613 whole entry): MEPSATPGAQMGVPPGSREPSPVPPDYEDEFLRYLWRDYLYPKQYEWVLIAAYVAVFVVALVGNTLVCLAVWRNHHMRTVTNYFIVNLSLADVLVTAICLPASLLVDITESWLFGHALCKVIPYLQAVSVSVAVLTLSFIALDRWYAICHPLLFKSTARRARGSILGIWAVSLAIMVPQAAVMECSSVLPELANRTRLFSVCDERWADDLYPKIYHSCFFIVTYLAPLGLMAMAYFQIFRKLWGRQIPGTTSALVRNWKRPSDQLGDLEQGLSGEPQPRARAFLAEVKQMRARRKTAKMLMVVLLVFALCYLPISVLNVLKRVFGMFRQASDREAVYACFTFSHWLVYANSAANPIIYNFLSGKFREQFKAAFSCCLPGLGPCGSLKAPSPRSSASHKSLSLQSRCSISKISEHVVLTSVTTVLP
T1 sequence (O43614 whole entry): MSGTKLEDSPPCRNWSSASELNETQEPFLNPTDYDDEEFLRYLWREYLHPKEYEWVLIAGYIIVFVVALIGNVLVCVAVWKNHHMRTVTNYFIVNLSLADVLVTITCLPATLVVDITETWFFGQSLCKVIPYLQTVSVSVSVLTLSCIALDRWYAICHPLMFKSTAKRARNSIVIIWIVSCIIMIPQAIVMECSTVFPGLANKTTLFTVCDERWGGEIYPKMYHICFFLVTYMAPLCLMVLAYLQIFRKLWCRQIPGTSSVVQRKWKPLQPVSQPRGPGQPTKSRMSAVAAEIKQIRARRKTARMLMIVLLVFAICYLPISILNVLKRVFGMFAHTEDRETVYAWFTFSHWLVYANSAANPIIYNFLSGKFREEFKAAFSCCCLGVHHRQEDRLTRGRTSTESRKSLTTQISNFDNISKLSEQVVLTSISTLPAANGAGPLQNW

For the compound `COc1ccc([C@H](C)NC(=O)COc2cc(C(F)F)c3c(C4CC4)nn(C)c3n2)cc1` [Example 6.7, (S)-2-(3-cyclopropyl-4-(difluoromethyl)-1-methyl-1H-pyrazolo[3,4-b]pyridin-6-yloxy)-N-(1-(4-methoxyphenyl)ethyl)acetamide], the Kd was 27 nM on human orexin 2 receptors [1] and 36 nM on human orexin 1 receptors [3]. The inhibition constant Ki on human orexin 2 receptors [2] stood at 21 nM; at human orexin 1 receptors [4] it was 68 nM.
Turning to `Cc1ccc2c(n1)CCC2NC(=O)COc1cc(C)c2c(C3CC3)nn(C)c2n1` (stereo not drawn) [Example 6.61, 2-(3-cyclopropyl-1,4-dimethyl-1H-pyrazolo[3,4-b]pyridin-6-yloxy)-N-(2-methyl-6,7-dihydro-5H-cyclopenta[b]pyridin-5-yl)acetamide], the Kd at human orexin 2 receptors [1] was determined as 159 nM; at human orexin 1 receptors [3], 157 nM. Also, the Ki at human orexin 2 receptors [2] was 93 nM; at human orexin 1 receptors [4], 227 nM.
For `Cc1ccc([C@H](C)NC(=O)COc2cc(C(F)F)c3c(C4CC4)nn(C)c3n2)cc1` [Example 6.8, (S)-2-(3-cyclopropyl-4-(difluoromethyl)-1-methyl-1H-pyrazolo[3,4-b]pyridin-6-yloxy)-N-(1-p-tolylethyl)acetamide] the same measures were 19 nM, 22 nM, 5 nM and 14 nM.
With `COc1cc2c(cc1OC)C(NC(=O)COc1cc(C)c3c(C4CC4)nn(C)c3n1)CC2` (stereo not drawn) [Example 7.1, 2-(3-cyclopropyl-1,4-dimethyl-1H-pyrazolo[3,4-b]pyridin-6-yloxy)-N-(5,6-dimethoxy-2,3-dihydro-1H-inden-1-yl)acetamide], the Kd on human orexin 2 receptors [1] was 65 nM; on human orexin 1 receptors [3], 55 nM. The results for the Ki on human orexin 2 receptors [2] and at human orexin 1 receptors [4] were 52 nM and 140 nM, respectively.
In the same order, the values of `COc1nc(-c2nn(C)c3nc(OCC(=O)N[C@@H](C)c4ccc(C)cc4)cc(C)c23)cs1` [Example 5.5, (S)-2-(3-(2-methoxythiazol-4-yl)-1,4-dimethyl-1H-pyrazolo[3,4-b]pyridin-6-yloxy)-N-(1-p-tolylethyl)acetamide] are 37 nM, 15 nM, 28 nM and 21 nM.
For `COc1ccnc(-c2nn(C)c3nc(OCC(=O)N[C@@H](C)c4ccc(C)cc4)cc(C)c23)n1` [Example 5.3, (S)-2-(3-(4-methoxypyrimidin-2-yl)-1,4-dimethyl-1H-pyrazolo[3,4-b]pyridin-6-yloxy)-N-(1-p-tolylethyl)acetamide] the same measures were 19 nM, 7 nM, 39 nM and 10 nM.
For `Cc1ccc2c(c1)CCC2NC(=O)COc1cc(C)c2c(C3CC3)nn(C)c2n1` (stereo not drawn) [Example 6.41, 2-(3-cyclopropyl-1,4-dimethyl-1H-pyrazolo[3,4-b]pyridin-6-yloxy)-N-(5-methyl-2,3-dihydro-1H-inden-1-yl)acetamide] the same measures were 225 nM, 908 nM, 29 nM and 495 nM.
Take `COc1ccc2c(c1)CC[C@@H]2NC(=O)C(C)Oc1cc(C)c2c(C3CC3)nn(C)c2n1` (single isomer, unassigned) [Example 6.71, (R or S)-2-(3-cyclopropyl-1,4-dimethyl-1H-pyrazolo[3,4-b]pyridin-6-yloxy)-N-((S)-5-methoxy-2,3-dihydro-1H-inden-1-yl)propanamide]: the Kd at human orexin 2 receptors [1] was 95 nM; on human orexin 1 receptors [3], 589 nM. For the same compound, the Ki on human orexin 2 receptors [2] is 55 nM; at human orexin 1 receptors [4], 348 nM.
For `Cc1cc(OCC(=O)NC(C)c2cnc3[nH]ccc3c2)nc2c1c(C1CC1)nn2C` (stereo not drawn) [Example 6.57, N-(1-(1H-pyrrolo[2,3-b]pyridin-5-yl)ethyl)-2-(3-cyclopropyl-1,4-dimethyl-1H-pyrazolo[3,4-b]pyridin-6-yloxy)acetamide] the same measures were 170 nM, 358 nM, 77 nM and 658 nM.
For `COc1ccc([C@H](C)NC(=O)COc2cc(C(F)(F)F)c3c(-c4cc(C)oc4C)nn(C)c3n2)cc1` [Example 6.80, (S)-2-(3-(2,5-dimethylfuran-3-yl)-1-methyl-4-(trifluoromethyl)-1H-pyrazolo[3,4-b]pyridin-6-yloxy)-N-(1-(4-methoxyphenyl)ethyl)acetamide], the values for the Kd at human orexin 2 receptors [1] and on human orexin 1 receptors [3] were 32 nM and 12 nM, respectively. The Ki at human orexin 2 receptors [2] is 7 nM; on human orexin 1 receptors [4], 6 nM.
As for `COc1ccc([C@H](C)NC(=O)COc2cc(C)c3c(-c4cc(C)oc4C)nn(C)c3n2)cc1` [Example 6.31, (S)-2-(3-(2,5-dimethylfuran-3-yl)-1,4-dimethyl-1H-pyrazolo[3,4-b]pyridin-6-yloxy)-N-(1-(4-methoxyphenyl)ethyl)acetamide], the results for the Kd on human orexin 2 receptors [1] and on human orexin 1 receptors [3] were 221 nM and 40 nM, respectively. The Ki at human orexin 2 receptors [2] worked out at 47 nM; on human orexin 1 receptors [4], 18 nM.
In the same order, the values of `Cc1cc(OCC(=O)NC(C)c2ccc3c(ccn3C)c2)nc2c1c(C1CC1)nn2C` (stereo not drawn) [Example 6.59, 2-(3-cyclopropyl-1,4-dimethyl-1H-pyrazolo[3,4-b]pyridin-6-yloxy)-N-(1-(1-methyl-1H-indol-5-yl)ethyl)acetamide] are 162 nM, 70 nM, 63 nM and 127 nM.
In the same order, the values of `Cc1ccc2c(n1)CC[C@@H]2NC(=O)COc1cc(C(F)F)c2c(-c3cc(C)oc3C)nn(C)c2n1` [Example 6.38, (S)-2-(4-(difluoromethyl)-3-(2,5-dimethylfuran-3-yl)-1-methyl-1H-pyrazolo[3,4-b]pyridin-6-yloxy)-N-(2-methyl-6,7-dihydro-5H-cyclopenta[b]pyridin-5-yl)acetamide] are 271 nM, 123 nM, 64 nM and 91 nM.
For `Cc1ccc(C(C)(C)NC(=O)COc2cc(C)c3c(C4CC4)nn(C)c3n2)cc1` [Example 6.6, 2-(3-cyclopropyl-1,4-dimethyl-1H-pyrazolo[3,4-b]pyridin-6-yloxy)-N-(2-p-tolylpropan-2-yl)acetamide] the same measures were 138 nM, 1010 nM, 47 nM and 606 nM.
Consider `Cc1cc(-c2nn(C)c3nc(OCC(=O)NC(C)c4c(C)nn(C)c4C)cc(C)c23)c(C)o1` (stereo not drawn) [Example 6.33, 2-(3-(2,5-dimethylfuran-3-yl)-1,4-dimethyl-1H-pyrazolo[3,4-b]pyridin-6-yloxy)-N-(1-(1,3,5-trimethyl-1H-pyrazol-4-yl)ethyl)acetamide], for which the results for the Kd on human orexin 2 receptors [1] and at human orexin 1 receptors [3] were 126 nM and 14 nM, respectively. Further, the Ki on human orexin 2 receptors [2] was 170 nM; on human orexin 1 receptors [4], 11 nM.
Consider `COc1ccc2c(c1)CCC2NC(=O)COc1cc(C)c2c(C3CC3)nn(C)c2n1` (stereo not drawn) [Example 6.3, 2-(3-cyclopropyl-1,4-dimethyl-1H-pyrazolo[3,4-b]pyridin-6-yloxy)-N-(5-methoxy-2,3-dihydro-1H-inden-1-yl)acetamide], for which the Kd at human orexin 1 receptors [3] was 101 nM. The Ki on human orexin 1 receptors [4] is 192 nM.
On to `COc1ccc([C@H](C)NC(=O)COc2cc(C)c3c(-c4cc(OC)cc(OC)c4)nn(C)c3n2)cc1` [Example 6.36, (S)-2-(3-(3,5-dimethoxyphenyl)-1,4-dimethyl-1H-pyrazolo[3,4-b]pyridin-6-yloxy)-N-(1-(4-methoxyphenyl)ethyl)acetamide], for which the Kd at human orexin 2 receptors [1] was found to be 498 nM; on human orexin 1 receptors [3], 19 nM. The Ki on human orexin 2 receptors [2] was 323 nM.
On to `COc1ccc2c(c1)CC[C@@H]2NC(=O)COc1cc(C)c2c(C3CC3)nn(C)c2n1` [Example 6.5, (S)-2-(3-cyclopropyl-1,4-dimethyl-1H-pyrazolo[3,4-b]pyridin-6-yloxy)-N-(5-methoxy-2,3-dihydro-1H-inden-1-yl)acetamide], for which, at human orexin 1 receptors [3], the Kd was determined as 67 nM. For the same compound, the Ki at human orexin 1 receptors [4] was 152 nM.
On to `Cc1ccc(C(C)NC(=O)COc2cc(C(F)(F)F)c3c(C4CC4)nn(C)c3n2)cn1` (stereo not drawn) [Example 6.16, 2-(3-cyclopropyl-1-methyl-4-(trifluoromethyl)-1H-pyrazolo[3,4-b]pyridin-6-yloxy)-N-(1-(6-methylpyridin-3-yl)ethyl)acetamide], for which the results for the Ki on human orexin 2 receptors [2] and on human orexin 1 receptors [4] were 188 nM and 1590 nM, respectively.
